Earlier results on 1 compound are cited in patent publication US20060024247A1, “Oral care formulations comprising highly bioavailable Coenzyme Q-10 cyclodextrin complex” (BioActives, LLC, priority 2004, published 2006).

Turning to `COC1=C(OC)C(=O)C(C/C=C(\C)CC/C=C(\C)CC/C=C(\C)CC/C=C(\C)CC/C=C(\C)CC/C=C(\C)CC/C=C(\C)CC/C=C(\C)CC/C=C(\C)CCC=C(C)C)=C(C)C1=O` [CoQ-10, Coenzyme Q-10], the bioavailability entry is “very poor” and the solubility in water result was “practically insoluble in water”.
